This is an account of results in patent US20260335293A1, “USE OF NOVEL COMPOUND FOR TREATING INTRACTABLE DISEASES” (YJ CERAPEUTICS INC., priority 2023, published 2026).

The subject of data set [1] is neuropathic pain (mechanical allodynia) in SCI, LSS and SNI animal models. The data set can be described thus: Mechanical allodynia (von Frey, 50% threshold) in SCI, LSS and SNI neuropathic pain models. The conditions noted are these: i.p. 5 mg/kg; at 1 hour after administration. The format is in vivo, Sprague-Dawley rats. On the procedure:
To be used as a central nerve injury animal model, a traumatic spinal cord injury (SCI) model was prepared (FIG. 1A). Specifically, 230 to 250 g of male adult Sprague-Dawley rats were anesthetized by intraperitoneal injection of chloral hydrate (500 mg/kg), and then the back and neck regions were shaved, and the spinal cord under the back and neck regions was exposed without damaging the dura mater, and a laminectomy was performed at T9 to T10 levels. To stabilize the spine, the spinous processes of T8 and T11 were fixed, and the spine was damaged by free-falling a 10 g weight from a height of 25 mm using an NYU impactor onto the back surface of the exposed spinal cord and then the rats were left in a temperature and humidity-controlled chamber overnight while covering the muscles and skin. After surgery, the rats were subcutaneously injected with a supplement solution (5 ml, lactated ringer) and injected with antibiotics (gentamicin, 5 mg/kg, intramuscular injection) once daily for 5 days. The body weight, remaining food, and the weight of water were confirmed and recorded for all animals, and the bladder was emptied twice daily by passive bladder massage until reflex micturition was established. At this time, a Sham group was a group that was subjected to only laminectomy without damage.
To be used as a peripheral nerve injury animal model, a lumbar spinal stenosis (LSS) model was prepared (FIG. 1B). Specifically, 260 to 280 g of adult male Sprague-Dawley rats were anesthetized with intraperitoneal injection of chloral hydrate (500 mg/kg), the back region was shaved, and then the spinal plate was exposed at L4 to S2 levels. After removing the ligamentous section between L4 and L5, a trapezoidal silicone block (1.00 mm long×1.3 to 1.2 mm wide×1.0 mm high) was inserted into the epidural space below the L5 and L6 spinal plates without damaging the dural sac. At this time, a Sham group was a group that was subjected to only posterior […] on the animal without inserting a silicone block.
To be used as a peripheral nerve injury animal model, a sciatic nerve injury (SNI) model was prepared (FIG. 1C). Specifically, 200 to 220 g of male adult Sprague-Dawley rats were anesthetized by intraperitoneal injection of chloral hydrate (500 mg/kg), and then three terminal branches (tibial, common peroneal, and sural nerves) of the right sciatic nerve were approached, and the tibia nerve and the peroneal nerve were tightly ligated with 4-0 silk, and neurectomy was performed at a distal 3 mm position of the ligation site. At this time, a Sham group was a group that exposed only the sciatic nerve without damage.
In order to confirm a neuropathic pain inhibitory effect of YJ102 (Chemical Formula 1), a compound of the present disclosure, in the three nerve injury animal models prepared in Example 1 above, rats having pain on week 3 (SNI model) or week 4 (SCI model and LSS model) after surgery were selected and administered orally (p.o.) at 10 mg/kg or 20 mg/kg of YJ102 dissolved in a solution of DMSO, methyl pyrrolidinone, and water (1:1.5:1), or intraperitoneally injected (i.p. injection) at 1, 2, or 5 mg/kg of YJ102. In a positive control group, gabapentin or pregabalin dissolved in saline was intraperitoneally injected at a concentration of 5 mg/kg, and in a Vehicle group, the same amount of a solution of DMSO, methyl pyrrolidinone, and water was administered. Thereafter, in order to measure mechanical allodynia, the rats were located at the bottom of a transparent plastic box (10 cm×10 cm) on top of a wire mesh (3 mm×3 mm) and subjected to an adaptation period for approximately 20 minutes. Von-Frey filaments were applied to the soles of both paws and used with stiff nylon von-Frey monofilament series ([…], Stoelting, WoodDale, IL, USA; equivalent in grams to 0.4, 0.6, 1.0, 2.0, 4.0, 6.0, 8.0 and 15.0) with logarithmic increases in tactile (mechanical) sensitivity. […]

A further data set concerns sedation. Kind of data set: Sedation as side effect of the drug. The class given is in vivo, Sprague-Dawley rats.

Take `NCC1(CC(=O)O)CCCCC1` [gabapentin, reference compound]: the analgesic effect entry in data set [1] was “significant analgesic effect”. Also, the sedation entry in the data set with sedation (50 mg/kg) is recorded as “sedation as a side effect of the drug was observed”.
In the case of `CC(C)C[C@H](CN)CC(=O)O` [pregabalin, reference compound], in data set [1], the analgesic effect entry was “significant analgesic effect”. Moreover, in the data set on sedation (20 mg/kg), the sedation result was “sedation as a side effect of the drug was observed”.
